Assay results published in patent publication EP0181129B1, “N6-substituted deoxyribose analogs of adenosines” (WARNER-LAMBERT COMPANY, priority 1984, dated 1986).
pIC50: −log10 of the molar value. Several values for one entry are separate records, joined by “and”; a condition that tells them apart may be missing. Equal entries are not always repeated.

Key:
adenosine A2 receptor = biological target: T1, adenosine A2 receptor (Rattus norvegicus, UniProt P30543); assay: Adenosine Receptor Binding - A2 Receptor Affinity (RBA2), [3H]NECA displacement; settings: 4 nM [3H]NECA with 50 nM N6-cyclopentyladenosine, rat striatal membranes, 60 minutes at 25°C; read-out: Receptor Binding RBA—2
T1 construct: Brains were thawed and then kept on ice while the striata were dissected out; tissue Pel-Freez (Rogers, Arkansas); host or cells: rat striatum, membranes
Experimental: Brains from 200-500 g mixed sex Sprague-Dawley rats were purchased from Pel-Freez (Rogers, Arkansas). Fresh brains from male Long-Evans hooded rats (Blue Spruce Farms, Altamont, NY) gave essentially indentical results. Brains were thawed and then kept on ice while the striata were dissected out. Striata were disrupted in 10 vol of ice-cold 50 mM Tris.HCI (pH 7.7 at 25°C, pH 8.26 at 5°C) (Tris) for 30 seconds in a Polytron PT―10 (Brinkmann) at setting 5. The suspension was centrifuged at 50,000 xg for ten minutes, the supernatant discarded, the pellet resuspended in 10 vol ice-cold Tris as above, recentrifuged, resuspended at 1 g/5 ml, and stored in plastic vials at -70°C (stable for at least six months). When needed, tissue was thawed at room temperature, disrupted in a Polytron, and kept on ice until used.
All incubations were for 60 minutes at 25°C in 12x75 mm glass tubes containing 1 ml Tris with 5 mg original tissue weight of rat weight of rat striatal membranes, 4 nM [^3H]-N-ethyl adenosine-5'-carboxamide ([^3H]NECA), 50 nM N^6-cyclopentyladenosine (to eliminate A1 receptor binding), 10 mM MgCl2, 0.1 units/ml, of adenosine deaminase and 1% dimethylsulfoxide. N^6-Cyclopentyladenosine was dissolved at 10 mM in 0.02 N HCI and diluted in Tris. Stock solutions and dilutions of N^6-cyclopentyladenosine could be stored at -20°C for several months. Test compounds were dissolved at 10 mM in dimethylsulfoxide or the same day as the experiment, and diluted in dimethylsulfoxide to 100x the final incubation concentration. Control incubations received an equal volume (10 µl) of dimethylsulfoxide; the resulting concentration of dimethylsulfoxide had no effect on binding. [^3H]NECA was diluted to 40 nM in Tris. The membrane suspension (5 mg/0.79 ml) contained sufficient MgCl2 and adenosine deaminase to give 10 mM and 0.1 units/ml, respectively, final concentration in the incubation. […] After all additions, the rack of tubes was vortexed, and the tubes were then incubated for 60 min at 25°C in a shaking water bath. The rack of tubes was vortexed an additonal time halfway through the incubation.
Incubations were terminated by filtration through 2.4 cm GF/B filters under reduced pressure. Each tube was filtered as follows: the contents of the tube were poured onto the filter, 4 ml of ice-cold Tris were added to the tube and the contents poured onto the filter, and the filter was washed twice with 4 ml of ice-cold Tris. The filtration was complete in about twelve seconds. Filters were put in scintillation vials, 8 ml of Formula 947 scintillation fluid added, and the vials left overnight, shaken, and counted in a liquid scintillation counter at 40% efficiency.
Nonspecific binding was defined as binding in the presence of […] N^6-cyclopentyladenosine, and specific binding was defined as total binding minus nonspecific binding. The IC50 was calculated by weighted nonlinear least squares curve-fitting to the mass-action equation. [formula] • where Y is cpm bound T is cpm total binding without drug S is cpm specific binding without drug D is the concentration of drug • and K is the IC50 of the drug Weighting factors were calculated under the assumption that the standard deviation was proportional to the predicted value of Y. Nonspecific binding was treated as a very large (infinite) concentration of drug in the computer analysis.

Swiss-Webster male mice = assay: Mouse Activity and Screen Test Procedure (MAST); assay type: in vivo; settings: for Inhibition of Mouse Locomotor Activity: one hour prior to testing; for Screen Test Failure: percent of mice falling off the screen
From the text: The compounds of the invention are new chemical substances which are useful as pharmaceutical agents for the treatment of psychoses. The antipsychotic activity of representative compounds of the invention was established by the Mouse Activity and Screen Test Procedure (MAST) described below.
Nine unfasted Swiss-Webster male mice weighing 20-30 g are equally divided into three groups for each drug dose to be tested. That is, data for each dose level was generated by three separate groups of three mice each.
A minimum of three dose levels (10, 30, and 100 mg/kg) are tested for each drug. Treatments are administered intraperitoneally one hour prior to testing. All dosages are calculated as parent compound and given in volumes of 10 ml/kg. Compounds are dissolved or suspended in 0.2% Methocel. Control animals are injected with Methocel.
A two part testing procedure is started one hour post injection. First, the screen test (ST) is performed (see Pharmac. Biochem. Behav. 6, 351-353, 1977). Briefly this test consists of placing mice on individual wire screens which are then rotated 180 degrees at the start of a 60 second observation period. The number of mice falling off the inverted screen is recorded.
Immediately following the screen test, the final phase of testing is initiated by placing each group of three mice in one actophotometer (Life Sciences, 22,1067-1076,1978). The actophotometer consists of a cylindrical chamber whose center is occupied by another cylinder which contains the illumination for six photocells located on the perimeter of the chamber. Six light-beam interruptions equal one count. Locomotor activity is recorded by computer at ten minutes intervals for 60 minutes.
The data obtained from the screen test are expressed as percent of mice falling off the screen. Data derived from locomotor activity of drug treated mice are compared to the activity of vehicle treated animals and are expressed as percent inhibition of spontaneous locomotion. All percentages reported for inhibition of locomotion (LI) are based upon data accumulated for one hour. Both phases of testing are graded: A=60-100%; C=31-59%; and N=0-30%. An overall dose rating is obtained by the following criteria:
LAD refers to the lowest dose at which an A rating is achieved. […] Utilizing this procedure, an overall dose rating of A was obtained for the noted compound at the indicated dose. The compounds are identified in the Examples.

[1] = Dose 10 mg/kg intraperitoneally
[2] = Dose 30 mg/kg intraperitoneally
[3] = Dose 0.3 mg/kg intraperitoneally

T1 sequence (P30543 whole entry): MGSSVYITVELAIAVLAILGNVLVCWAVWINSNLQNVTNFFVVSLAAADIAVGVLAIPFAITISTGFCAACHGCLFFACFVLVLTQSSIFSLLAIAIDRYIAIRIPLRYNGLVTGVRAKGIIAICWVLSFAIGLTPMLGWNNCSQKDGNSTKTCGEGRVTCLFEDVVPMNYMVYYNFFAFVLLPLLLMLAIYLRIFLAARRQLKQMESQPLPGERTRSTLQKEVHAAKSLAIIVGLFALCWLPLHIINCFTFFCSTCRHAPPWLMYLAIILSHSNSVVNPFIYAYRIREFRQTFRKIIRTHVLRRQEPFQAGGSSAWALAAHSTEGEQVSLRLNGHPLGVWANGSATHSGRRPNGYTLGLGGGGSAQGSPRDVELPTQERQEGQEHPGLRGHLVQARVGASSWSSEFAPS

Row | Structure (SMILES) | pIC50 (adenosine A2 receptor) | Inhibition of Mouse Locomotor Activity (Swiss-Webster male mice; Dose 3 mg/kg intraperitoneally) [%] | Screen Test Failure (Swiss-Webster male mice; Dose 3 mg/kg intraperitoneally) [%] | Inhibition of Mouse Locomotor Activity (Swiss-Webster male mice; [1]) [%] | Screen Test Failure (Swiss-Webster male mice; [1]) [%] | Inhibition of Mouse Locomotor Activity (Swiss-Webster male mice; [2]) [%] | Screen Test Failure (Swiss-Webster male mice; [2]) [%] | Inhibition of Mouse Locomotor Activity (Swiss-Webster male mice; [3]) [%] | Screen Test Failure (Swiss-Webster male mice; [3]) [%] | Inhibition of Mouse Locomotor Activity (Swiss-Webster male mice; Dose 1 mg/kg intraperitoneally, 1 mg/kg) | Screen Test Failure (Swiss-Webster male mice; Dose 1 mg/kg intraperitoneally) [%]
1 | C[C@H]1O[C@@H](n2cnc3c(NC4CCCc5ccccc54)ncnc32)[C@H](O)[C@@H]1O (stereo partly shown) [Example 19, N^6-1-Tetralinyl-5' -deoxyadenosine] | 4.15 | 36 | 11 | 55 | 0 | 83 | 0 | – | – | – | –
2 | C[C@H]1O[C@@H](n2cnc3c(NCc4cccc5ccccc45)ncnc32)[C@H](O)[C@@H]1O [Example 20, N^6-α-Naphthylmethyl-5' -deoxyadenosine] | 6.49 | −1 | 0 | 49 | 0 | 81 | 0 | – | – | – | –
3 | O[C@@H]1[C@H](O)[C@@H](CCl)O[C@H]1n1cnc2c(NC3CCc4ccccc43)ncnc21 (stereo partly drawn) [Example 23, (R)-N^6(1-Indanyl)-5'-deoxy-5'-chloroadenosine] | 5.52 | 48 | 0 | 76 | 0 | 81 | 0 | −2 | 0 | 0% and 7% | 0
